Among the data in PubChem BioAssay (NCI) are TGI and GI50 values, retold here.

Values joined by “and” are separate entries in the source; they are usually repeats but may differ in a detail not shown here. Equal values may be shown once.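 All cell lines were grown in 96-well plates and treated with compound for 48 hours. The concentration for 50% growth inhibition is given as GI50. The concentration for full growth arrest is given as TGI.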

Among the test systems are COLO 205 colon; A549 NSCLC; NCI-H226 lung; RXF 393 renal; SNB-75 CNS; SN12C renal; SNB-19 CNS; HS 578T breast; OVCAR-5 ovarian; HOP-62 NSCLC; SF-268 CNS; OVCAR-8 ovarian; DU-145 prostate; 786-0 renal; UO-31 renal; SK-OV-3 ovarian; SF-539 CNS; K-562 leukemia.
Test in all cases: NCI tumour cell line growth inhibition, 48 h

`CCCN(CCCC(NC(C)=O)C(=O)NCc1ccccc1)C(=O)N(CCCl)N=O` (stereo unspecified): the TGI with COLO 205 colon was 42.6 µM; in the assay on A549 NSCLC, 68.7 µM; with NCI-H226 lung it was 40.1 µM; with RXF 393 renal it was 35 µM; in the assay on SNB-75 CNS it was 39.8 µM; in the assay on SN12C renal, > 76.1 µM. Further, the TGI with SNB-19 CNS was > 84.9 µM; with HS 578T breast it was > 100 µM; in the assay with OVCAR-5 ovarian it was 64.6 µM; in the assay with HOP-62 NSCLC it was 19.8 µM; in the assay on SF-268 CNS it was 42.6 µM; in the assay with OVCAR-8 ovarian, 12.7 µM. Moreover, the TGI was > 100 µM in the assay on DU-145 prostate; 19.1 µM in the assay with 786-0 renal; 50 µM in the assay with UO-31 renal; 63.1 µM in the assay on SK-OV-3 ovarian; 5.95 µM with SF-539 CNS; 87.6 µM in the assay with K-562 leukemia.
Regarding `COc1ccc2c(CCN)c(C(=O)O)[nH]c2c1`, the TGI in the assay on COLO 205 colon, in the assay on A549 NSCLC, with NCI-H226 lung, with RXF 393 renal, in the assay with SNB-75 CNS and in the assay with SN12C renal was > 100 µM each time. The TGI in the assay with SNB-19 CNS, in the assay on HS 578T breast, in the assay with OVCAR-5 ovarian, with HOP-62 NSCLC, in the assay with SF-268 CNS and with OVCAR-8 ovarian was > 100 µM in each case. The TGI in the assay on DU-145 prostate, in the assay on 786-0 renal, in the assay on UO-31 renal, with SK-OV-3 ovarian, in the assay with SF-539 CNS and with K-562 leukemia was > 100 µM throughout.
With `S=C(NC1=NCC(CN2CCN(c3ccccc3)CC2)O1)Nc1ccccc1` (stereo unspecified), the TGI in the assay on COLO 205 colon, in the assay with A549 NSCLC, in the assay with NCI-H226 lung, in the assay with RXF 393 renal, in the assay with SNB-75 CNS and with SN12C renal was > 100 µM in each case. Also, the TGI with SNB-19 CNS, with HS 578T breast, in the assay on OVCAR-5 ovarian, with HOP-62 NSCLC, with SF-268 CNS and in the assay with OVCAR-8 ovarian was > 100 µM in each case. Moreover, the TGI in the assay on DU-145 prostate was > 100 µM; in the assay on 786-0 renal it was > 100 µM; with UO-31 renal it was 97.5 µM; with SK-OV-3 ovarian it was > 100 µM; with SF-539 CNS, > 100 µM; in the assay with K-562 leukemia, > 100 µM.
As for `CN(CCn1cnc2c1c(=O)n(C)c(=O)n2C)C1CCCCC1`, the TGI in the assay with COLO 205 colon, in the assay with A549 NSCLC, with NCI-H226 lung, in the assay with RXF 393 renal, in the assay on SNB-75 CNS and in the assay with SN12C renal was > 100 µM in each case. The TGI in the assay with SNB-19 CNS, in the assay with HS 578T breast, in the assay with OVCAR-5 ovarian, in the assay on HOP-62 NSCLC, in the assay on SF-268 CNS and in the assay with OVCAR-8 ovarian was > 100 µM throughout. Besides, the TGI with DU-145 prostate, in the assay with 786-0 renal, in the assay with UO-31 renal, in the assay on SK-OV-3 ovarian, in the assay on SF-539 CNS and with K-562 leukemia was > 100 µM each time.
Take `CC(=O)OC(/C=C/c1ccccc1)P1(=O)N(CC(C)(C)C)[C@@H]2CCCC[C@H]2N1CC(C)(C)C` (stereo partly specified): the TGI in the assay on COLO 205 colon was 13.2 µM and 10.8 µM; in the assay on A549 NSCLC it was 17.3 µM and 18.5 µM; in the assay with NCI-H226 lung, 21.8 µM and 25.7 µM; with RXF 393 renal, 22 µM and 14.5 µM; in the assay on SNB-75 CNS, 12.8 µM and 4.17 µM; in the assay on SN12C renal it was 22.6 µM and 21.6 µM. The TGI in the assay with SNB-19 CNS is 23.5 µM and 24.2 µM; in the assay on HS 578T breast, 24.5 µM and 27.1 µM; with OVCAR-5 ovarian, 23.4 µM and 23.5 µM; with HOP-62 NSCLC, 38.3 µM and 30.3 µM; in the assay on SF-268 CNS it was 23.3 µM and 22.7 µM; with OVCAR-8 ovarian, 19.7 µM and 21.6 µM. Besides, the TGI with DU-145 prostate is 23.7 µM and 23.5 µM; with 786-0 renal, 21.4 µM and 21.1 µM; with UO-31 renal, 19.6 µM and 17 µM; in the assay with SK-OV-3 ovarian, 37.4 µM and 25.7 µM; with SF-539 CNS, 21.2 µM and 28.6 µM; with K-562 leukemia, 21.7 µM and 20.6 µM. Besides, the GI50 with SNB-75 CNS is 3.91 µM and 0.684 µM.
Consider `CN(C)CCNC(=O)c1cccc2c(NCCN(C)C)c3ccccc3nc12`, for which the TGI turned out to be 7.23 µM in the assay with COLO 205 colon; 6.05 µM with A549 NSCLC; 3.66 µM with NCI-H226 lung; 14.2 µM in the assay on RXF 393 renal; 11.1 µM in the assay on SNB-75 CNS; 5.94 µM with SN12C renal. Also, the TGI is 26.3 µM in the assay on SNB-19 CNS; 8.57 µM in the assay with HS 578T breast; 11.1 µM in the assay on OVCAR-5 ovarian; 13.2 µM in the assay on HOP-62 NSCLC; 11.2 µM with SF-268 CNS; 12.4 µM in the assay with OVCAR-8 ovarian. The TGI was determined as 28.2 µM in the assay on DU-145 prostate; 6.65 µM with 786-0 renal; 8.29 µM with UO-31 renal; 40.2 µM in the assay with SK-OV-3 ovarian; 11.3 µM with SF-539 CNS; 6.86 µM in the assay with K-562 leukemia.
Take `COc1ccc2nc3ccc(OC)cc3c(SCCO)c2c1`: the TGI was > 64.3 µM with COLO 205 colon; > 100 µM in the assay on A549 NSCLC; > 100 µM in the assay with NCI-H226 lung; > 100 µM in the assay with RXF 393 renal; 81.8 µM in the assay on SNB-75 CNS; > 100 µM in the assay with SN12C renal. Besides, the TGI was > 100 µM in the assay with SNB-19 CNS; > 100 µM with HS 578T breast; > 100 µM with OVCAR-5 ovarian; > 100 µM in the assay on HOP-62 NSCLC; 96.9 µM in the assay on SF-268 CNS; > 55.4 µM in the assay with OVCAR-8 ovarian. Further, the TGI was 37.1 µM in the assay with DU-145 prostate; > 60 µM in the assay with 786-0 renal; > 100 µM with UO-31 renal; > 100 µM in the assay with SK-OV-3 ovarian; > 72.4 µM in the assay on SF-539 CNS; > 100 µM in the assay with K-562 leukemia.
As for `O=C1NC(SSC2=NNC3(C(=O)N2)c2ccccc2-c2ccccc23)=NNC12c1ccccc1-c1ccccc12`, the TGI in the assay with COLO 205 colon, with A549 NSCLC, with NCI-H226 lung, with RXF 393 renal, in the assay with SNB-75 CNS and with SN12C renal was > 10 µM each time. Moreover, the TGI in the assay on SNB-19 CNS, in the assay on HS 578T breast, in the assay on OVCAR-5 ovarian, in the assay on HOP-62 NSCLC, in the assay on SF-268 CNS and with OVCAR-8 ovarian was > 10 µM in each case. Besides, the TGI with DU-145 prostate, in the assay on 786-0 renal, in the assay with UO-31 renal, in the assay on SK-OV-3 ovarian, with SF-539 CNS and in the assay on K-562 leukemia was > 10 µM throughout.
Regarding `COC(=O)NCCc1[nH]nc2c1C(=O)C=C(N1CCOCC1)C2=O`, the TGI in the assay with COLO 205 colon, in the assay on A549 NSCLC, with NCI-H226 lung, with RXF 393 renal, in the assay on SNB-75 CNS and in the assay with SN12C renal was > 100 µM in each case. For the same compound, the TGI with SNB-19 CNS, in the assay with HS 578T breast, with OVCAR-5 ovarian, in the assay on HOP-62 NSCLC, in the assay on SF-268 CNS and in the assay with OVCAR-8 ovarian was > 100 µM in each case. For the same compound, the TGI in the assay on DU-145 prostate, with 786-0 renal, with UO-31 renal, in the assay on SK-OV-3 ovarian, with SF-539 CNS and with K-562 leukemia was > 100 µM each time.
As to `Nn1c(COc2cccc(OCc3n[nH]c(=S)n3N)c2)n[nH]c1=S`, the TGI in the assay with COLO 205 colon, with A549 NSCLC, in the assay on NCI-H226 lung, in the assay with RXF 393 renal, in the assay with SNB-75 CNS and in the assay with SN12C renal was > 100 µM throughout. Also, the TGI with SNB-19 CNS, in the assay with HS 578T breast, in the assay on OVCAR-5 ovarian, in the assay on HOP-62 NSCLC, with SF-268 CNS and in the assay with OVCAR-8 ovarian was > 100 µM throughout. Moreover, the TGI with DU-145 prostate, in the assay with 786-0 renal, in the assay on UO-31 renal, in the assay on SK-OV-3 ovarian, in the assay with SF-539 CNS and in the assay on K-562 leukemia was > 100 µM in each case.
